Data taken from paper PMC9230201, “Sustained Consumption of a Decaffeinated Green Coffee Nutraceutical Has Limited Effects on Phenolic Metabolism and Bioavailability in Overweight/Obese Subjects” (Nutrients, 2022).
“And” between values parts separate entries of the source, which are not always exact repeats. Identical values can stand only once.

Legend:
[1] = Fecal excretion of phenolic metabolites after intake of the GCPE nutraceutical; conditions: feces
[2] = Urinary excretion of phenolic metabolites after intake of the GCPE nutraceutical; conditions: for Cumulative urinary excretion, Total 0–24 h: urine, mean ± SEM, n = 9
Method: Participants attended the Human Nutrition Unit (HNU) at the Institute of Food Science, Technology and Nutrition (ICTAN-CSIC) on two consecutive days at the beginning of the intervention (week 0) and also on two consecutive days at the end of the study, after consuming daily two doses of the GCPE nutraceutical, providing 600 mg/d phenols, during two months (week 8). […] A licensed health care professional placed an intravenous catheter in the subjects′ nondominant arm and collected a fasting blood sample (baseline, 0 h). Then, subjects drank the soluble GCPE nutraceutical dissolved in 200 mL of water. […] On the sampling days, volunteers remained at the HNU, where a (poly)phenol-free diet was provided. Half an hour after consuming the nutraceutical, volunteers ate a breakfast consisting of ham, cheese, white bread, and a yogurt. Lunch (paella, bread, and yogurt) and an afternoon snack (muffin and yogurt) were eaten 5 and 9 h, respectively, after consuming the nutraceutical. Water and isotonic beverages were freely available. […] The same protocol was followed during visits at the end of the 8-week intervention. On each occasion, two days before each visit to the HNU, subjects consumed a low (poly)phenol diet free of foods containing hydroxycinnamates such as coffee, herbal teas, red wine, artichokes, whole grain cereals, vegetables, fruits and fruit juices, and dried fruits. Only banana, watermelon, cantaloupes, and potatoes were allowed.
(§1) Blood samples were immediately centrifuged (10 min, 3000 rpm, 4 °C) to obtain plasma. […] All biological samples were stored at −80 °C until analysis.
To extract plasma metabolites, 10 µL of 50% (v/v) aqueous formic acid, and 900 µL cold acetonitrile containing 50 µL of 10% (w/v) ascorbic acid were added to 400 µL defrosted plasma. Samples were vortexed and centrifuged (14,000 rpm, 10 min, 4 °C), repeating the extraction and combining the two supernatants, which were reduced to dryness under nitrogen [13]. Dried samples were resuspended in 150 µL of 0.1% aqueous formic acid (containing 10% acetonitrile acidified with 0.1% formic acid), centrifuged (15 min, 14,000 rpm, 4 °C), and the supernatant collected. Urine samples were diluted 1:1 with Milli-Q water and centrifuged (14,000 rpm, 20 min, 4 °C) prior to analysis. Phosphate-buffered saline (3 mL) was added to a representative 300 mg sample of thawed feces, homogenized in an ultrasound bath during 10 min, centrifuged (14,000 rpm, 20 min, 4 °C), and the supernatants collected.
Mobile phase A was 0.1% formic acid in Milli-Q water, and mobile phase B was acetonitrile containing 0.1% formic acid at a 0.3 mL/min flow rate. […] Metabolites were identified based on their retention time using authentic standards when possible. […] Urine concentration of excreted metabolites was normalized to the total volume excreted in each studied interval.
Plasma (30 µL), urine (5 µL) and fecal extracts (5 µL) were filtered through 0.45 µm
cellulose-acetate membrane filters and injected into an Agilent 1200 series LC system
ESI-Jet Stream Technology (Agilent Technologies). A reverse-phase Ascentis Express
C18 (15 cm x 3 mm, 2.7 µm) column (Sigma-Aldrich Quimica, Madrid), preceded by a
phase A was 0.1% formic acid in Milli-Q water, and mobile phase B was acetonitrile
containing 0.1% formic acid at a 0.3 mL/min flow rate. The gradient started with 10% B
at 0 min, 30% B at 10 min, 40% B at 15 min, reaching 50% B at 20 min. The starting
gradient was then re-established in 2 min and maintained for 8 min to re-equilibrate the

[3] = Plasma pharmacokinetics of phenolic metabolites after intake of the GCPE nutraceutical (LC-MS-QToF); conditions: for AUC(0-t) / Tmax: 300 mg hydroxycinnamic acids; for AUC(0-t): AUC0–24h; for Tmax: Tmax (h) or Range
Method: Participants attended the Human Nutrition Unit (HNU) at the Institute of Food Science, Technology and Nutrition (ICTAN-CSIC) on two consecutive days at the beginning of the intervention (week 0) and also on two consecutive days at the end of the study, after consuming daily two doses of the GCPE nutraceutical, providing 600 mg/d phenols, during two months (week 8). On each occasion, on the first visit day (Figure 1), subjects arrived at the HNU after an overnight (12 h) fast and provided a urine sample. A licensed health care professional placed an intravenous catheter in the subjects′ nondominant arm and collected a fasting blood sample (baseline, 0 h). Then, subjects drank the soluble GCPE nutraceutical dissolved in 200 mL of water. Subsequently, blood samples were collected in EDTA-coated tubes at 0.5, 1, 1.5, 2, 3, 4, 6, 8, 10, and 11 h. On the sampling days, volunteers remained at the HNU, where a (poly)phenol-free diet was provided. Half an hour after consuming the nutraceutical, volunteers ate a breakfast consisting of ham, cheese, white bread, and a yogurt. Lunch (paella, bread, and yogurt) and an afternoon snack (muffin and yogurt) were eaten 5 and 9 h, respectively, after consuming the nutraceutical. Water and isotonic beverages were freely available. Volunteers were instructed to eat a (poly)phenol-free dinner that night and to attend the HNU on the next day after a 12 h fast. Then, a final blood sample was obtained from the antecubital vein 24 h after consuming the nutraceutical. The same protocol was followed during visits at the end of the 8-week intervention. On each occasion, two days before each visit to the HNU, subjects consumed a low (poly)phenol diet free of foods containing hydroxycinnamates such as coffee, herbal teas, red wine, artichokes, whole grain cereals, vegetables, fruits and fruit juices, and dried fruits. Only banana, watermelon, cantaloupes, and potatoes were allowed.
as §1
To extract plasma metabolites, 10 µL of 50% (v/v) aqueous formic acid, and 900 µL cold acetonitrile containing 50 µL of 10% (w/v) ascorbic acid were added to 400 µL defrosted plasma. Samples were vortexed and centrifuged (14,000 rpm, 10 min, 4 °C), repeating the extraction and combining the two supernatants, which were reduced to dryness under nitrogen [13]. Dried samples were resuspended in 150 µL of 0.1% aqueous formic acid (containing 10% acetonitrile acidified with 0.1% formic acid), centrifuged (15 min, 14,000 rpm, 4 °C), and the supernatant collected.
A reverse-phase Ascentis Express C18 (15 cm × 3 mm, 2.7 µm) column (Sigma-Aldrich Quimica, Madrid, Spain), preceded by a Supelco 55215-U guard column (3 mm × 5 mm, 2.7 µm), was used for separation. Mobile phase A was 0.1% formic acid in Milli-Q water, and mobile phase B was acetonitrile containing 0.1% formic acid at a 0.3 mL/min flow rate. […] Metabolites were identified based on their retention time using authentic standards when possible.

[4] = week 0, GCPE nutraceutical with 300 mg hydroxycinnamic acids, mean ± SEM, n = 9
[5] = week 0, first peak where biphasic
[6] = week 8, GCPE nutraceutical with 300 mg hydroxycinnamic acids, mean ± SEM, n = 9
[7] = week 8, first peak where biphasic

| SMILES | Amount of fecal metabolite excreted at 0 h ([1]; week 8) | Amount of fecal metabolite excreted at 24 h ([1]; week 8) [µmol/g] | Cumulative urinary excretion, Total 0–24 h ([2]; week 0) [µmol] | Cumulative urinary excretion, Total 0–24 h ([2]; week 8) [µmol] | Amount excreted in urine, 0- 3 h ([2]; week 0, interval 0–3 h) [µmol] | Amount excreted in urine, 3-6 h ([2]; week 0, interval 3–6 h) [µmol] | Amount excreted in urine, 6-9 h ([2]; week 0, interval 6–9 h) [µmol] | Amount excreted in urine, 9-11 h ([2]; week 0, interval 9–11 h) [µmol] | Amount excreted in urine, 11-24 h ([2]; week 0, interval 11–24 h) [µmol] | Amount excreted in urine, 0- 3 h ([2]; week 8, interval 0–3 h) [µmol] | Amount excreted in urine, 3-6 h ([2]; week 8, interval 3–6 h) [µmol] | Amount excreted in urine, 6-9 h ([2]; week 8, interval 6–9 h) [µmol] | Amount excreted in urine, 9-11 h ([2]; week 8, interval 9–11 h) [µmol] | Amount excreted in urine, 11-24 h ([2]; week 8, interval 11–24 h) [µmol] | AUC0–24h ([3]; week 0) [µM/min] | Cmax [3, 4] | Tmax (h) or Range [3, 5] [h] | AUC0–24h ([3]; week 8) [µM/min] | Cmax [3, 6] | Tmax (h) or Range [3, 7] [h] | further results |
| --- | --- | --- | --- | --- | --- | --- | --- | --- | --- | --- | --- | --- | --- | --- | --- | --- | --- | --- | --- | --- | --- |
| COc1cc(/C=C/C(=O)O[C@@H]2C[C@@](O)(C(=O)O)C[C@@H](O)[C@@H]2O)ccc1O [3-Feruloylquinic acid] | 0.0010 ± 0.0007 µmol/g | 0.003 ± 0.002 | 0.29 ± 0.07 | 0.34 ± 0.07 | 0.15 ± 0.04 | 0.1 ± 0.04 | 0.021 ± 0.006 | 0.007 ± 0.004 | 0.01 ± 0.005 | 0.19 ± 0.04 | 0.08 ± 0.02 | 0.05 ± 0.01 | 0.014 ± 0.008 | 0.015 ± 0.007 | – | – | – | – | – | – | Amount of fecal metabolite excreted at 0 h ([1]; week 0, mean ± SEM, n = 9): 0.003 ± 0.003 µmol/g; Amount of fecal metabolite excreted at 24 h ([1]; week 0): 0.003 ± 0.003 µmol/g |
| O=C(O)Cc1ccc(O)c(O)c1 [3′,4′-Dihydroxyphenylacetic acid] | – | 0.010 ± 0.008 | 1.2 ± 0.2 | 1.3 ± 0.2 | 0.12 ± 0.03 | 0.08 ± 0.03 | 0.11 ± 0.05 | 0.06 ± 0.02 | 0.38 ± 0.04 | 0.15 ± 0.03 | 0.05 ± 0.02 | 0.08 ± 0.02 | 0.09 ± 0.03 | 0.31 ± 0.03 | – | – | – | – | – | – | – |
| O=C(O)CCc1cccc(O)c1 [DHiCoA, 3-(3′-Hydroxyphenyl)propanoic acid] | 0.4 µmol/g and 0.4 ± 0.1 µmol/g | 0.25 ± 0.07 | – | – | – | – | – | – | – | – | – | – | – | – | – | – | – | – | – | – | Amount of fecal metabolite excreted at 0 h ([1]; week 0, mean ± SEM, n = 9): 0.21 µmol/g and 0.21 ± 0.07 µmol/g; Amount of fecal metabolite excreted at 24 h ([1]; week 0): 0.24 ± 0.07 µmol/g |
| COc1cc(/C=C/C(=O)NCC(=O)O)ccc1O [Feruloylglycine] | – | – | 19 ± 5 | 25 ± 5 | 1 ± 0.2 | 0.9 ± 0.3 | 4 ± 1 | 2.6 ± 0.9 | 3.9 ± 0.9 | 1 ± 0.3 | 1.2 ± 0.3 | 3 ± 1 | 3 ± 1 | 3 ± 1 | 0.029 ± 0.007 | Traces ^b | 7 ± 1 | 0.026 ± 0.004 | Traces ^b | 8.4 ± 0.6 | Cmax ([3]; weeks 0 and 8 not distinguished): trace levels; Cumulative urinary excretion, Total 0–24 h ([2]; week 0, listed as feruloylglycine): 19 µmol; Cumulative urinary excretion, Total 0–24 h ([2]; week 8, listed as feruloylglycine): 25 µmol; Amount excreted in urine, TOTAL ([2]; week 0, Table S5 total): 19 ± 5 µmol; Amount excreted in urine, 0 h ([2]; week 8, 0 h (before intake on sampling day)): 14 ± 4 µmol; Amount excreted in urine, TOTAL ([2]; week 8, Table S6 total): 25 ± 5 µmol |
| O=C(O)/C=C/c1ccc(O)cc1 [CoA, 4′-Hydroxycinnamic acid] | 0.006 ± 0.004 µmol/g | 0.003 ± 0.001 | – | – | – | – | – | – | – | – | – | – | – | – | – | – | – | – | – | – | Amount of fecal metabolite excreted at 24 h ([1]; week 0): 0.002 ± 0.002 µmol/g |
| COc1ccc(CCC(=O)O)cc1OS(=O)(=O)O [DHiFA-3′-sulfate, 3-(4′-Methoxyphenyl)propanoic acid-3′-sulfate] | – | – | 3 ± 1 | 2.6 ± 0.8 | 0.18 ± 0.06 | 0.1 ± 0.04 | 0.4 ± 0.1 | 0.2 ± 0.1 | 1.9 ± 0.8 | 0.14 ± 0.04 | 0.09 ± 0.03 | 0.24 ± 0.09 | 0.11 ± 0.03 | 2 ± 0.7 | 0.3 ± 0.1 | 40 ± 10 nM | 7 ± 1 | 0.8 ± 0.5 | 110 ± 60 nM | 11.6 ± 3.2 | – |
| COc1ccc(CCC(=O)O)cc1O [DHiFA, 3-(3′-Hydroxy-4′-methoxyphenyl) propanoic acid] | – | – | 3.7 ± 0.4 | 3.2 ± 0.2 | 0.26 ± 0.04 | 0.25 ± 0.08 | 1.2 ± 0.3 | 0.8 ± 0.2 | 1.2 ± 0.09 | 0.32 ± 0.07 | 0.38 ± 0.08 | 1 ± 0.2 | 0.7 ± 0.2 | 1 ± 0.2 | – | – | – | – | – | – | AUC(0-t) ([3]; human, oral, week 0): 0.5 ± 0.2 µM·h; AUC(0-t) ([3]; human, oral, week 8): 0.6 ± 0.2 µM·h; Tmax ([3]; human, oral, week 0, first peak where biphasic): 7 ± 1 h; Tmax ([3]; human, oral, week 8, first peak where biphasic): 7 ± 1 h; Cmax ([3]; human, oral, 300 mg, Cmax, week 0, GCPE nutraceutical with 300 mg hydroxycinnamic acids, mean ± SEM, n = 9): 70 ± 20 nM; Cmax ([3]; human, oral, 300 mg, Cmax, week 8, GCPE nutraceutical with 300 mg hydroxycinnamic acids, mean ± SEM, n = 9): 70 ± 20 nM |
| COc1cc(C=CC(=O)O)ccc1OC1OC(C(=O)O)C(O)C(O)C1O (stereo not shown) [FA-4′-glucuronide, 3′-Methoxycinnamic acid-4′-glucuronide] | – | – | 3.4 ± 0.4 | 3.7 ± 0.5 | 0.5 ± 0.1 | 0.42 ± 0.07 | 0.7 ± 0.2 | 0.44 ± 0.09 | 1.3 ± 0.3 | 0.6 ± 0.1 | 0.37 ± 0.05 | 0.8 ± 0.1 | 0.8 ± 0.3 | 1.3 ± 0.2 | 0.06 ± 0.01 | 16 ± 9 nM | 1.2 ± 0.3 | 0.063 ± 0.02 | 9 ± 2 nM | 1.2 ± 0.3 | Tmax, second peak ([3]; week 0, biphasic profile): 4.7 ± 0.3 h |
| COc1ccc(CCC(=O)O)cc1O[C@@H]1O[C@H](C(=O)O)[C@@H](O)[C@H](O)[C@H]1O [DHiFA-3′-glucuronide, 3-(4′-Methoxyphenyl)propanoic acid-3′-glucuronide] | – | – | 2.9 ± 0.5 | 3.1 ± 0.7 | 0.12 ± 0.04 | 0.16 ± 0.06 | 1.1 ± 0.4 | 0.7 ± 0.2 | 0.8 ± 0.2 | 0.3 ± 0.1 | 0.28 ± 0.07 | 1.1 ± 0.2 | 0.8 ± 0.4 | 0.6 ± 0.3 | 0.6 ± 0.4 | 60 ± 20 nM | 9.0 ± 0.6 | 0.7 ± 0.4 | 70 ± 30 nM | 8.1 ± 0.8 | – |
